The term EC50 denotes the concentration needed to bring the measured effect to its halfway point. A higher EC50 goes with a need for much substance. Usually IC50 stands for the midpoint of a concentration-inhibition curve.

In experiment [1] the test system is Rat whole blood (RWB). The experiment is described as follows: LTB4 secretion assay in RWB (rat whole blood). The format is cell-based. To be noted: Rattus norvegicus. An outline of the steps: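 Heparinized blood from male Sprague Dawley rats (6-9 weeks) diluted 1:1 in RPMI, pre-incubated 15 min at 37 °C with compound (2.5 nM to 50 uM). Stimulated with 10 uM calcium ionophore A23187 for 10 min at 37 °C, stopped with ice-cold PBS; LTB4 in supernatant quantified by EIA.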

The target of experiment [2] is T1, human 5-LOX (Homo sapiens, UniProt P09917).
T1 construct: purchased Cayman 60402; host or cells: insect cells (lysate)
T1 sequence (P09917 1-674): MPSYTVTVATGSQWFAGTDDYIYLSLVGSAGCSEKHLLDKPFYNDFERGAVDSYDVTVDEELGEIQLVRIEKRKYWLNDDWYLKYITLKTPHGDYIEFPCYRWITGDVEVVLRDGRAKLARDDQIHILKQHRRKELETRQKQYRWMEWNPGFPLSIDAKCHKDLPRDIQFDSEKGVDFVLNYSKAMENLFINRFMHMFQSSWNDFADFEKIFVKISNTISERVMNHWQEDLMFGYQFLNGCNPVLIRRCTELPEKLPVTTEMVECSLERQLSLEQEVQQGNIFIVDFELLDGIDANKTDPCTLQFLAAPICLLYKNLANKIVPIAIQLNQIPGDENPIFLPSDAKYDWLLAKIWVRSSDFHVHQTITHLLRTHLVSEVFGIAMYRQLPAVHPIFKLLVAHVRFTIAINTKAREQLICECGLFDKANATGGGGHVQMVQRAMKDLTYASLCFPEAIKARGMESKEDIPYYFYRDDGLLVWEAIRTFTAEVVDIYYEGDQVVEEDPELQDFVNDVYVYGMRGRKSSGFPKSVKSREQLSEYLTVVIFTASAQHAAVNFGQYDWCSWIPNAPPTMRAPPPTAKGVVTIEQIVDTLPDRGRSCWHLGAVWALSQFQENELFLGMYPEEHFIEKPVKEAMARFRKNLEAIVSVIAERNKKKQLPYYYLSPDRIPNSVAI
The experiment is described as follows: 5-LOX enzyme activity, fluorescence method (5-HPETE, H2DCFDA). The format is biochemical. To be noted: read-out: 5-LO (IC50). An outline of the steps:
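Compound (0.5 nM to 10 uM) pre-incubated 5 min with enzyme; reaction started with ATP (100 uM final) and arachidonic acid (3 uM final). All steps at room temperature, fluorescence read-out.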

Experiment [3] deals with Rat basophilic leukemia (RBL) cells. The experiment is described as follows: LTB4 secretion assay in RBL (rat basophilic leukemia cells). The format is cell-based. Particulars: Rattus norvegicus, RBL. Put shortly:
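Cells seeded 2×10^4/well the day before, then pre-incubated 15 min at 37 °C in EMEM/0.5% FBS with compound (5 nM to 100 uM). Stimulation with 2.5 uM arachidonic acid plus 5 uM A23187 (final) for 10 min at 37 °C; LTB4 in supernatant quantified by EIA.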

In experiment [4] the target is T2, Human 5-lipoxygenase (5-LOX) (Homo sapiens, UniProt P09917).
T2 construct: purchased Cayman 60402; host or cells: insect cells
T2 sequence (P09917 1-674): T1 sequence (P09917 1-674)
The experiment is described as follows: 5-LOX enzyme activity, LTB4 measurement by ELISA. The format is biochemical. Particulars: ELISA method; read-out: 5LO (IC50). How it is done: The activity of compounds against 5-LOX were determined by measuring LTB4 (leukotriene B4) levels and/or by a fluorescence method. Both approaches are outlined in more detail below;
LTB4 Measurement by ELISA:
Human 5-lipoxygenase (5-LOX) (Cayman, Cat #60402) produced in insect cells was pre-incubated with compounds for 5 min at RT in incubation buffer (50 mM Tris-Cl, pH 7.4, 2 mM CaCl2, 0.1 mM ATP, 2% DMSO). Compounds were tested in dose reponse from 0.5 nM to 10 uM. The enzymatic reaction was started by adding arachidonic acid to a final concentration of 3 uM. After 5 min of incubation at 25° C., the reaction was stopped by adding H2O2 to a final concentration of 1 mM. LTB4 levels were quantified using a LTB4 EIA kit (Cayman, Cat #520111) as instructed.
A general note: ELISA stands for enzyme-linked immunosorbent assay.

Structures are written as SMILES. Some results are limits rather than exact numbers.

With `Nc1ccc2c(c1)nc(N)n2CCOc1ccc(OC(F)(F)F)cc1` [Compound 49], the 50% effective concentration (EC50) was 10 to 20 µM in experiment [1] and below 10 µM in experiment [3]. Also, the 50% inhibitory concentration (IC50) in experiment [2] was above 10 µM; in experiment [4], 1 to 20 µM.

Turning to `Nc1ccc2nc(N)n(CCOc3ccc(OC(F)(F)F)cc3)c2c1` [Compound 48], the concentration for a half-maximal effect (EC50) in experiment [1] and in experiment [3] was below 10 µM each time. In addition, the figures for the IC50 in experiment [2] and in experiment [4] were below 1 µM and 1 to 20 µM, respectively.

Turning to `Nc1ccc2[nH]c(NCc3ccc(Oc4ccc(Cl)cc4)cn3)nc2c1` [Compound 14], the EC50 in experiment [1] and in experiment [3] was below 10 µM each time. Besides, the 50% inhibitory concentration (IC50) in experiment [2] and in experiment [4] was below 1 µM each time.

The values are drawn from patent publication US11447486B2, “2-amino-benzimidazole derivatives and their use as 5-lipoxygenase and/or prostaglandin E synthase inhibitors” (INSTITUT PASTEUR KOREA, priority 2014, dated 2022).
